Laboratory results taken from patent US8481495B2 (TetraLogic Pharmaceuticals Corporation, priority 2009, dated 2013).

Legend:
XIAP BIR-3 = target: T1, XIAP BIR-3 (Homo sapiens, UniProt P98170); experiment: Fluorescence polarization binding to XIAP BIR-3 with labeled peptide AbuRPF-K(5-Fam)-NH2; details: XIAP BIR-3, 40 nM BIR3, 5 nM labeled peptide, 15 min RT, pH 7.5; read-out: XIAP, nM (binding affinity KD, as range)
T1 construct: 40 nM of the respective IAP BIR3
Procedure: (§1) The binding affinities of the compounds are reported as a KD value (μM). Briefly, various concentrations of test peptides were mixed with 5 nM of the fluorescently labeled peptide (i.e., a mutated N-terminal Smac peptide-AbuRPF-K(5-Fam)-NH2) and 40 nM of the respective IAP BIR3 for 15 min at RT in […] of 0.1M Potassium Phosphate buffer, pH 7.5 containing […] bovine g-globulin. Following incubation, the polarization values (mP) were measured on a Victor2V™ (available from PerkinElmer® Life Sciences) using a 485 nm excitation filter and a 520 nm emission filter. The reported binding affinities (KD values) are supplied as ranges (A=<0.1 μM, B=0.1 μM to 1 μM, C=>1 μM to 10 μM, D=>10 μM).

cIAP-1 BIR-3 = target: T2, cIAP-1 BIR-3 (Homo sapiens, UniProt Q13490); experiment: Fluorescence polarization binding to cIAP-1 BIR-3 with labeled peptide AbuRPF-K(5-Fam)-NH2; details: cIAP-1 BIR-3, 40 nM BIR3, 5 nM labeled peptide, 15 min RT, pH 7.5; read-out: cIAP1, nM (binding affinity KD, as range)
T2 construct: 40 nM of the respective IAP BIR3
Procedure: as §1

SK-OV-3 cells = experiment: MTT cell growth inhibition assay in ovarian cancer cell line SK-OV-3; type: cell-based; details: Homo sapiens, 72 hrs incubation, read-out: SKOV3, nM (CC50, concentration giving 50% cell survival, as range)
Procedure: Compounds of the invention also were tested for their ability to inhibit the growth of an ovarian cancer cell line, SK-OV-3. A known assay previously used for measuring cell growth (as described in Hansen, M. B., Nielsen, S. E., and Berg, K. (1989) J. Immunol. Methods 119, 203-210 and incorporated herein by reference in its entirety) was used. Briefly, SK-OV-3 cells are seeded in 96-well plates in McCoy's medium containing 10% fetal bovine serum albumin (5,000 per well) and incubated overnight at 37° C. The next day, test compounds are added at various concentrations (0.003-10 μM) and the plates are incubated at 37° C. for an additional 72 hrs. This incubation time was considered to be optimal for measuring inhibitory effects of the different compounds tested. 50 microliters of 5 mg/mL MTT reagent is added to each well and the plates are incubated at 37° C. for another three (3) hours. At the end of the three (3) hour incubation period, 50 microliters of DMSO is added to each well to dissolve cells and the optical density (OD) of the wells is measured with a microplate reader (Victor^2 1420™, Wallac, Finland) at 535 nm. Cell survival (CS) was calculated using the following equation: CS=(OD treated well/mean OD control wells)×100%.
The CC50 (reported in the following tables), is defined as the drug concentration that results in 50% cell survival (CS), and is derived by calculating the point where the dose-response curve crosses the 50% CS point using GraphPad Prism® graphing software. The reported CC50 values are supplied as ranges (A=<0.1 μM, B=0.1 μM to 1 μM, C=>1 μM to 10 μM, D=>10 μM).

T1 sequence (P98170 241-356 limits assumed): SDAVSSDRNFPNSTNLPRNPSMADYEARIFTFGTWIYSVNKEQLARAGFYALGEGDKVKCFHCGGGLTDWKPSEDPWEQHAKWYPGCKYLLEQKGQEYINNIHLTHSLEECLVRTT
T2 sequence (Q13490 253-363 limits assumed): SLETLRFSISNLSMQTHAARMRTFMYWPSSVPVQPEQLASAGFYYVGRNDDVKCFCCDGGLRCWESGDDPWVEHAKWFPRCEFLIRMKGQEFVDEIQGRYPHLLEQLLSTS

Compound	Kd (XIAP BIR-3) [nM]	Kd (cIAP-1 BIR-3) [nM]	CC50 (SK-OV-3 cells) [nM]
CN[C@@H](C)C(=O)N[C@H](C(=O)N1CC[C@@H]2[C@H]1[C@@H](C(=O)Nc1ccc3ccccc3c1)CN2S(C)(=O)=O)C1CCCCC1 [Example 18, 4-[2-Cyclohexyl-2-(2-methylamino-propionylamino)-acetyl]-1-methanesulfonyl-octahydro-pyrrolo[3,2-b]pyrrole-3-carboxylic acid naphthalen-2-ylamide]	100 to 1000	< 100	< 100
CN[C@@H](C)C(=O)N[C@H](C(=O)N1CC[C@@H]2[C@H]1[C@@H](C(=O)NCC1CCCCC1)CN2S(C)(=O)=O)C1CCCCC1 [Example 19, 4-[2-Cyclohexyl-2-(2-methylamino-propionylamino)-acetyl]-1-methanesulfonyl-octahydro-pyrrolo[3,2-b]pyrrole-3-carboxylic acid cyclohexylmethyl-amide]	< 100	< 100	< 100
CN[C@@H](C)C(=O)N[C@H](C(=O)N1CC[C@@H]2[C@H]1[C@@H](C(=O)NCc1ccccc1)CN2S(C)(=O)=O)C(C)(C)C [Example 20, 4-[3,3-Dimethyl-2-(2-methylamino-propionylamino)-butyryl]-1-methanesulfonyl-octahydro-pyrrolo[3,2-b]pyrrole-3-carboxylic acid benzylamide]	< 100	< 100	< 100
CN[C@@H](C)C(=O)N[C@H](C(=O)N1CC[C@@H]2[C@H]1[C@@H](C(=O)NCc1ccc(F)cc1)CN2S(C)(=O)=O)C(C)(C)C [Example 21, 4-[3,3-Dimethyl-2-(2-methylamino-propionylamino)-butyryl]-1-methanesulfonyl-octahydro-pyrrolo[3,2-b]pyrrole-3-carboxylic acid 4-fluoro-benzylamide]	< 100	< 100	< 100
CN[C@@H](C)C(=O)N[C@H](C(=O)N1CC[C@@H]2[C@H]1[C@@H](C(=O)Nc1ccccc1)CN2S(C)(=O)=O)C(C)(C)C [Example 22, 4-[3,3-Dimethyl-2-(2-methylamino-propionylamino)-butyryl]-1-methanesulfonyl-octahydro-pyrrolo[3,2-b]pyrrole-3-carboxylic acid phenylamide]	< 100	< 100	< 100
CN[C@@H](C)C(=O)N[C@H](C(=O)N1CC[C@@H]2[C@H]1[C@@H](C(=O)N[C@H]1CCCc3ccccc31)CN2S(C)(=O)=O)C(C)(C)C [Example 23, 4-[3,3-Dimethyl-2-(2-methylamino-propionylamino)-butyryl]-1-methanesulfonyl-octahydro-pyrrolo[3,2-b]pyrrole-3-carboxylic acid (1,2,3,4-tetrahydro-naphthalen-1-yl)-amide]	< 100	< 100	100 to 1000
CN[C@@H](C)C(=O)N[C@H](C(=O)N1CC[C@@H]2[C@H]1[C@@H](C(=O)Nc1cccc3ccccc13)CN2S(C)(=O)=O)C(C)(C)C [Example 24, 4-[3,3-Dimethyl-2-(2-methylamino-propionylamino)-butyryl]-1-methanesulfonyl-octahydro-pyrrolo[3,2-b]pyrrole-3-carboxylic acid naphthalen-1-ylamide]	< 100	< 100	< 100
CN[C@@H](C)C(=O)N[C@H](C(=O)N1CC[C@@H]2[C@H]1[C@@H](C(=O)Nc1ccc3ccccc3c1)CN2S(C)(=O)=O)C(C)(C)C [Example 25, 4-[3,3-Dimethyl-2-(2-methylamino-propionylamino)-butyryl]-1-methanesulfonyl-octahydro-pyrrolo[3,2-b]pyrrole-3-carboxylic acid naphthalen-2-ylamide]	< 100	< 100	< 100
CN[C@@H](C)C(=O)N[C@H](C(=O)N1CC[C@@H]2[C@H]1[C@@H](C(=O)Nc1cc(C)nn1-c1ccccc1)CN2S(C)(=O)=O)C(C)(C)C [Example 26, 4-[3,3-Dimethyl-2-(2-methylamino-propionylamino)-butyryl]-1-methanesulfonyl-octahydro-pyrrolo[3,2-b]pyrrole-3-carboxylic acid (5-methyl-2-phenyl-2H-pyrazol-3-yl)-amide]	< 100	< 100	100 to 1000
CN[C@@H](C)C(=O)N[C@H](C(=O)N1CC[C@@H]2[C@H]1[C@@H](C(=O)N[C@@H]1CCCc3ccccc31)CN2S(C)(=O)=O)C(C)(C)C [Example 27, 4-[3,3-Dimethyl-2-(2-methylamino-propionylamino)-butyryl]-1-methanesulfonyl-octahydro-pyrrolo[3,2-b]pyrrole-3-carboxylic acid (1,2,3,4-tetrahydro-naphthalen-1-yl)-amide]	< 100	< 100	< 100
CN[C@@H](C)C(=O)N[C@H](C(=O)N1CC[C@@H]2[C@H]1[C@@H](C(=O)N[C@@H](C)C1CCCCC1)CN2S(C)(=O)=O)C(C)(C)C [Example 28, 4-[3,3-Dimethyl-2-(2-methylamino-propionylamino)-butyryl]-1-methanesulfonyl-octahydro-pyrrolo[3,2-b]pyrrole-3-carboxylic acid (1S-cyclohexyl-ethyl)-amide]	< 100	< 100	< 100
CN[C@@H](C)C(=O)N[C@H](C(=O)N1CC[C@@H]2[C@H]1[C@@H](C(=O)N[C@H](C)C1CCCCC1)CN2S(C)(=O)=O)C(C)(C)C [Example 29, 4-[3,3-Dimethyl-2-(2-methylamino-propionylamino)-butyryl]-1-methanesulfonyl-octahydro-pyrrolo[3,2-b]pyrrole-3-carboxylic acid (1R-cyclohexyl-ethyl)-amide]	1000 to 10000	< 100	1000 to 10000
CN[C@@H](C)C(=O)N[C@H](C(=O)N1CC[C@@H]2[C@H]1[C@@H](C(=O)N[C@@H](Cc1ccccc1)C(=O)O)CN2S(C)(=O)=O)C1CCCCC1 [Example 30, 2-({4-[2-Cyclohexyl-2-(2-methylamino-propionylamino)-acetyl]-1-methanesulfonyl-octahydro-pyrrolo[3,2-b]pyrrole-3-carbonyl}-amino)-3-phenyl-propionic acid]	1000 to 10000	< 100	1000 to 10000
CN[C@@H](C)C(=O)N[C@H](C(=O)N1CC[C@H]2NC[C@H](C(=O)Nc3ccccc3)[C@H]21)C1CCCCC1 [Example 31]	100 to 1000	< 100	100 to 1000
CN[C@@H](C)C(=O)N[C@H](C(=O)N1CC[C@H]2NC[C@@H](C(=O)Nc3ccccc3)[C@H]21)C1CCCCC1 [Example 32]	100 to 1000	< 100	1000 to 10000
CNC(C)C(=O)NC(C(=O)N1CCC2C1C(C(=O)NC1CCCc3ccccc31)CN2C(=O)C1CC1)C1CCCCC1 (stereo not drawn) [Example 33, 4-[2-Cyclohexyl-2-(2-methylamino-propionylamino)-acetyl]-1-cyclopropanecarbonyl-octahydro-pyrrolo[3,2-b]pyrrole-3-carboxylic acid (1,2,3,4-tetrahydro-naphthalen-1-yl)-amide]	< 100	< 100	< 100
